From the Kinase Knowledgebase extract (Sharma et al. 2016)
pIC50, pKd, pKi: −log10 of the molar value.

Target: PIK3CA (human) (UniProt P42336)
Assay: Enzyme Assay
Details: not given

Sequence of PIK3CA (human) (P42336 whole entry, looked up): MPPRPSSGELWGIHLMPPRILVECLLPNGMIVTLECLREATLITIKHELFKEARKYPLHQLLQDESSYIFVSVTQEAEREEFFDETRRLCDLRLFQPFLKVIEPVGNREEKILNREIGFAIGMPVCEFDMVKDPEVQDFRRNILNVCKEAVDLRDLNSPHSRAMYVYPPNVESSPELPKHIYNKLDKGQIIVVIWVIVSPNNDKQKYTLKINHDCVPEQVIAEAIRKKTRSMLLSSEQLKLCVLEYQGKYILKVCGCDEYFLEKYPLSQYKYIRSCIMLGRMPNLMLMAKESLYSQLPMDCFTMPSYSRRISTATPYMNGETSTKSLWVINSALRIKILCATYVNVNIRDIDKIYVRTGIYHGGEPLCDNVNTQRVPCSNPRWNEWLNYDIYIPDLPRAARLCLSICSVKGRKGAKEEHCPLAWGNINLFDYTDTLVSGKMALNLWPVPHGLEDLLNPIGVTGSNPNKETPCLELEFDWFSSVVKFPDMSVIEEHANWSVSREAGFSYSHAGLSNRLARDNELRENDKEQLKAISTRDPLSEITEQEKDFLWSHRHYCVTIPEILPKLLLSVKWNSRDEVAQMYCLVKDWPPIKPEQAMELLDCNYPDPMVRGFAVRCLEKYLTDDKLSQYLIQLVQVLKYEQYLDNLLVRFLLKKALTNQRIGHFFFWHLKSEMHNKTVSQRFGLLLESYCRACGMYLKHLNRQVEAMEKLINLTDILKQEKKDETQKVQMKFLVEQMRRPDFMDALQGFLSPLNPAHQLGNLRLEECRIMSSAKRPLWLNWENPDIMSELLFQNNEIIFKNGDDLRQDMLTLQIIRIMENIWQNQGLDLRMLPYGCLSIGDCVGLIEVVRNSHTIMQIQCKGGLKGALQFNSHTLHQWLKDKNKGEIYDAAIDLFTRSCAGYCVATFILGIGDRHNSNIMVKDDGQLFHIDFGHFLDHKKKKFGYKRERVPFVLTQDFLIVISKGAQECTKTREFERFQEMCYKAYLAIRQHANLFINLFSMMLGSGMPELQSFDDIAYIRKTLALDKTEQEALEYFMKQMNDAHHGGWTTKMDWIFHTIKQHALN

| SMILES | pIC50 | pKd |
| --- | --- | --- |
| CCN1CC(C)(C)Oc2nc(N3CCOC[C@@H]3C)nc(-c3ccc(NC(=O)Nc4ccc(C)cn4)cc3)c2C1=O | 5.84 |  |
| COc1cc(-c2cncc(NS(=O)(=O)c3ccccc3)c2)cn2c(-c3noc(C)n3)cnc12 |  | 5.91 |
| CS(=O)(=O)N1CC2CCC(C1)N2c1cn2cc(-c3cnc(N)nc3)nc(N3CCOCC3)c2n1 | 6.97 |  |
| CCN1CC(C)(C)Oc2nc(N3CC4CCC(C3)O4)nc(-c3ccc(NC(=O)Nc4ccnc(N5CCC(F)(F)CC5)c4)c(F)c3)c2C1=O | < 5.00 |  |
| Cc1nc(-c2cnc3c(F)cc(-c4cncc(NS(=O)(=O)c5ccccc5)c4)cn23)no1 |  | 8.11 |
| COc1ncc(-c2ccc3nnc(C#CC(C)(C)O)n3n2)cc1NS(=O)(=O)c1ccc(F)cc1 | 7.49 |  |
| C[C@@H]1COC[C@@H](C)N1c1nc(Oc2ccc(C(=O)N(C)C)cc2)nc(-c2cnc(N)s2)n1 | 5.22 |  |
| COCCN1CC(C)(C)Oc2nc(N3CC4CCC(C3)O4)nc(-c3ccc(NC(=O)Nc4ccon4)cc3)c2C1=O | < 5.00 |  |
| CN1CC(C)(C)Oc2nc(N3CC4CCC(C3)O4)nc(-c3ccc(NC(=O)Nc4ccc(N5CC6CCC(C5)O6)nc4)c(F)c3)c2C1=O | < 5.00 |  |
| CCN1CC(C)(C)Oc2nc(N3CC4CCC(C3)O4)nc(-c3ccc(NC(=O)Nc4ccn(C)n4)cc3)c2C1=O | 5.38 |  |
| CN(C)CCCNC(=O)c1cn2cc(-c3cccnc3)nc(N3CCOCC3)c2n1 | 6.53 |  |
| CCN1CC(C)(C)Oc2nc(N3CC4CCC(C3)O4)nc(-c3ccc(NC(=O)N[C@@H](C)CO)c(F)c3)c2C1=O | < 5.00 |  |
| CN1CCN(c2cnc3ccc(-c4cnc(N)c(S(=O)(=O)N(C)C)c4)cc3n2)CC1 | 7.80 |  |
| CCN1CC(C)(C)Oc2nc(N3[C@@H]4CC[C@H]3COC4)nc(-c3ccc(NC(=O)Nc4ccncc4F)cc3)c2C1=O | 5.25 |  |
| Cc1nc(-c2cnc3c(C)cc(-c4cncc(NS(=O)(=O)c5ccccc5)c4)cn23)no1 |  | 7.33 |
| CN(C)C(=O)c1ccc(Nc2nc(-c3ccc(N)nc3)nc(N3CCOCC3)n2)cc1 | > 6.00 |  |
| C=CC(=O)N1CCC[C@@H](n2nc(-c3ccc(Oc4ccccc4)cc3)c3c(N)ncnc32)C1 | < 5.00 |  |
| CS(=O)(=O)N1CCN(c2cnc3c(N4CCOCC4)nc(-c4cccc(O)c4)cn23)CC1 | 6.00 to 7.00 |  |
| CCN1CC(C)(C)Oc2nc(N3CC4CCC(C3)O4)nc(-c3ccc(NC(=O)Nc4cnccn4)cc3)c2C1=O | < 5.00 |  |
| COCCCNC(=O)c1cn2cc(-c3cccnc3)nc(N3CCOCC3)c2n1 | 6.21 |  |
| COc1ncc(-c2cn3cc(CN4CCN(S(C)(=O)=O)CC4)nc3c(N3CCOCC3)n2)cn1 | 6.00 to 7.00 |  |
| COc1cccc(-c2cn3c(I)c(C)nc3c(N3CCOCC3)n2)c1 | 6.00 to 7.00 |  |
| Cc1nc(-c2cnc3c(Cl)cc(-c4cncc(NS(=O)(=O)c5ccccc5)c4)cn23)no1 |  | 6.37 |
| O=C(c1cn2cc(-c3cccc4[nH]ncc34)nc(N3CCOCC3)c2n1)N1CCNCC1 | 6.74 |  |
| C[C@@H]1COC[C@H](C)N1c1nc(Oc2ccc(C(=O)N(C)C)cc2F)nc(-c2cnc(N)s2)n1 | 6.00 |  |

Target: PIK3CG (human) (UniProt P48736)
Sequence (P48736 whole entry, looked up): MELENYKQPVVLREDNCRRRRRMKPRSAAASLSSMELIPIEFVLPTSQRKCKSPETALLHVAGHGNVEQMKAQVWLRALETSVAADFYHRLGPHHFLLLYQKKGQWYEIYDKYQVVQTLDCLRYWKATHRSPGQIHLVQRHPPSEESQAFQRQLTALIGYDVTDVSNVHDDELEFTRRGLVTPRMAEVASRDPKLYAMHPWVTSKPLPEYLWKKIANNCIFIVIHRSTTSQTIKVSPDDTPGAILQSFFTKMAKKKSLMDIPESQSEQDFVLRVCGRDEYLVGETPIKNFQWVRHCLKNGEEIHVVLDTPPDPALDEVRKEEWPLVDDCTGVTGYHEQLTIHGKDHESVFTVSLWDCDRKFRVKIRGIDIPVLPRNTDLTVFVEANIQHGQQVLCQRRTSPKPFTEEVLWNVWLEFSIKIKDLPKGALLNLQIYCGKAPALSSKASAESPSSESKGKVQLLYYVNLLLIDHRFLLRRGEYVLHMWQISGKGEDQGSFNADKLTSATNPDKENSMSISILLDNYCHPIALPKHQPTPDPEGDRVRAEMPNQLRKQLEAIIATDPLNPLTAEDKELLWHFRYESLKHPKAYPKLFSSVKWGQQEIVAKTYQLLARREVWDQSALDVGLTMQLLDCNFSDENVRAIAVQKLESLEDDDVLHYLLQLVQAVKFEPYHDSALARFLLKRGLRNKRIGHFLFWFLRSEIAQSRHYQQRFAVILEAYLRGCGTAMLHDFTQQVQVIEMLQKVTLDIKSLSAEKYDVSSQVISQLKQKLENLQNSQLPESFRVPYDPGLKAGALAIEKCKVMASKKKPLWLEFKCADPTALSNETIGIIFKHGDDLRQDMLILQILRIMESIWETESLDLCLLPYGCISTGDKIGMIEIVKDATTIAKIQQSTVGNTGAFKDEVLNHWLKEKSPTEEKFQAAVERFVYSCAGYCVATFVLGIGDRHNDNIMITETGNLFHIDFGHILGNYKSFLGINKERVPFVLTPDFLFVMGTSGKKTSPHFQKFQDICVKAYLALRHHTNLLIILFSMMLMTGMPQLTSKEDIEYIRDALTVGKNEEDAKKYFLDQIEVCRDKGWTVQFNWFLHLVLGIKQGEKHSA
Assay: Inhibition of PIK3CG Kinase Activity
Details: not given

| SMILES | pIC50 | pKi | pKd |
| --- | --- | --- | --- |
| COc1ccc(OC)c(Nc2nc3ncccc3nc2NS(=O)(=O)c2ccccc2)c1 | 7.14 |  |  |
| O=C1NC(=S)S/C1=C\c1ccc2ncnc(N3CCC(F)CC3)c2n1 | 8.70 |  |  |
| COc1cc2sc(C(=O)Nc3nnn[nH]3)c(OC3C[C@@H](C)C[C@@H](C)C3)c2cc1OC (some centres not stated) | 7.49 |  |  |
| Cc1nc(NC(=O)NCCC(=O)OC(C)(C)C)sc1-c1ccncc1 | 7.30 |  |  |
| COc1cc2sc(C(=O)Nc3nn[nH]n3)c(O[C@H]3C[C@H](C)C[C@H](C)C3)c2cc1OC | 6.99 |  |  |
| COc1ccc(OC)c(Nc2nc3ccccc3nc2NS(=O)(=O)c2cccc(C#N)c2)c1 | 6.37 |  |  |
| CCn1c(C(=O)Nc2nnn[nH]2)c(-c2ccccc2)c2cc(OC)c(OC)cc21 | 5.18 |  |  |
| COc1cc(Nc2nc3ccccc3nc2NS(=O)(=O)c2ccc(CN(C)C)cc2)cc(OC)c1 | 7.57 |  |  |
| Cc1cc(NC(=O)CCNC(=O)Nc2cn3cc(Br)ccc3n2)no1 |  | 5.30 |  |
| Cc1cc(NCc2ccccc2)c2nc(N3CCOCC3)cc(=O)n2c1 | < 5.00 |  |  |
| COc1cc(Nc2nc3ccccc3nc2NS(=O)(=O)c2cccc(C(=O)NCCCN(C)C)c2)cc(OC)c1 | 7.52 |  |  |
| COC[C@H]1OC(=O)c2coc3c2[C@@]1(C)C1=C(C3=O)[C@@H]2CCC(=O)[C@@]2(C)C[C@H]1O | 7.59 |  |  |
| Cn1ncc2c(Nc3ccc(C(N)=O)cc3)nc(Nc3ccc(NC(=O)Nc4cccnc4)cc3)nc21 | 7.17 |  |  |
| CCCn1c(C(=O)Nc2nnn[nH]2)c(-c2ccccc2)c2cc(OC)c(OC)cc21 | 5.38 |  |  |
| O=C1NC(=O)/C(=C/c2ccc3ncn(-c4ccc5c(c4)CCN5S(=O)(=O)CCCN4CCOCC4)c3n2)S1 | 7.70 |  |  |
| CC(=O)Nc1nc(C)c(-c2csc(Nc3cccc(-c4nnn[nH]4)c3)n2)s1 | 8.05 |  |  |
| COc1ccc(OC)c(Nc2nc3ccccc3nc2NS(=O)(=O)c2ccc3c(c2)sc(=O)n3C)c1 | 6.62 |  |  |
| COc1cc2sc(C(=O)Nc3nnn[nH]3)c(OCC3CCCCCC3)c2cc1OC | 7.44 |  |  |

| SMILES | pIC50 | pKi | pKd |
| --- | --- | --- | --- |
| COc1cc2c(O[C@H]3C[C@@H](C)CC(C)(C)C3)c(C(=O)Nc3nn[nH]n3)sc2cc1C | 8.05 |  |  |
| Cc1[nH]c2ccc(Br)cc2c1C=C1Oc2cc(O)cc(O)c2C1=O | 5.65 |  |  |
| Oc1cccc(-c2nc(N3CCOCC3)c3[nH]cc(C4CCN(Cc5ccc(Cl)nc5)CC4)c3n2)c1 | 5.84 |  |  |
| COc1cc2sc(C(=O)Nc3nnn[nH]3)c(OC3CCCC[C@H]3C)c2cc1OC (some centres not stated) | 7.00 |  |  |
| COc1ccc(OC)c(Nc2nc3ccccc3nc2NS(=O)(=O)c2cccnc2)c1 | 7.25 |  |  |
| CC1(C)CCN(C(=O)c2ccc(NC(=O)Nc3ccc(-c4nc(O[C@H]5CCOC5)nc(N5CCOCC5)n4)cc3)cc2)CC1 | 8.14 |  | 8.19 |
| OCc1cccc(-c2nc(N3CCOCC3)c3cnn(C4CCNCC4)c3n2)c1 | 6.29 |  |  |
| CC(C)(C)NS(=O)(=O)c1cncc(-c2ccc3nc(N)cn3n2)c1 | > 6.70 |  |  |
| Cc1cc(-c2sc(NC(=O)NCC(=O)N(C)C)nc2C)nc([S+](C)[O-])n1 (configuration not stated) | 7.80 |  |  |
| CCN(CC)C(C)=C1C(=O)O[C@H](COC)[C@@]2(C)C1=C(O)C(=O)C1=C2[C@H](OC(C)=O)C[C@]2(C)C(=O)CC[C@@H]12 | 7.10 |  |  |
| COc1ccc(-c2ccc3nc(N)cn3n2)cc1OC | > 6.70 |  |  |
| COc1cc2sc(C(=O)Nc3nnn[nH]3)c(OCC3(C)COC3)c2cc1OC | 6.35 |  |  |
| CC(=O)Nc1nc(C)c(-c2csc(NCCC(N)=O)n2)s1 | 7.19 |  |  |
| CC(C)n1nnc(CCNC(=O)Nc2cn3cc(-c4cncc(F)c4)ccc3n2)n1 |  | 6.77 |  |
| CC(C)n1nnc(CCNC(=O)Nc2cn3cc(-c4cnc5ccccc5c4)ccc3n2)n1 |  | 6.24 |  |
| O=C1NC(=O)/C(=C/c2ccc(-c3cc(F)cc(F)c3O)o2)S1 | 7.54 |  |  |
| COc1ccc(OC)c(Nc2nc3ccccc3nc2NS(=O)(=O)c2cn(C)cn2)c1 | 7.10 |  |  |
| COc1cc2c(O[C@@H]3CCC[C@@H](C)C3)c(C(=O)Nc3nn[nH]n3)sc2cc1C | 7.62 |  |  |

Same assay, conditions: concentration not given here

| SMILES | inhibition [%] |
| --- | --- |
| O=C1NC(=O)/C(=C/c2ccc(-c3ccc4ccccc4n3)o2)S1 | 13 |

Target: PIK3CA (human) (UniProt P42336)
Assay: Assessment of PIK3CA Kinase Activity
Details: not given

| SMILES | pIC50 |
| --- | --- |
| CN(C(=O)c1cc2c(s1)-c1ccccc1OC2)c1ccccc1F | 6.60 |
| NCC(=O)N1CCC(c2cc(N3CCOCC3)nc(-n3c(C(F)F)nc4ccccc43)n2)CC1 | 6.52 |
| O=C(Nc1cccc(-c2cc(N3CCOCC3)nc(-c3cccc(CO)c3)n2)c1)C1CCNCC1 | 7.00 |
| CCOC(=O)N1CCC(n2ncc3c(N4CCO[C@H](C)C4)nc(-c4ccc(NC(=O)Nc5ccncc5)cc4)nc32)CC1 | 6.29 |
| OCc1cccc(-c2cc(-n3c(C(F)F)nc4ccccc43)nc(N3CCOCC3)n2)c1 | 6.52 |

Target: PIK3CA (human) (UniProt P42336)
Assay: Inhibition of PIK3CA Kinase Activity
Details: not given

| SMILES | pIC50 |
| --- | --- |
| Cn1ncc2c(Nc3ccc(C(N)=O)cc3)nc(Nc3ccc(NC(=O)Nc4cccnc4)cc3)nc21 | 9.00 |
| Cc1[nH]c2ccc(Br)cc2c1C=C1Oc2cc(O)cc(O)c2C1=O | 6.75 |
| Oc1cccc(-c2nc(N3CCOCC3)c3[nH]cc(C4CCN(Cc5ccc(Cl)nc5)CC4)c3n2)c1 | 6.40 |
| O=C1NC(=O)/C(=C/c2ccc(-c3cc(F)cc(F)c3O)o2)S1 | 6.47 |

Target: ROCK2 (human) (UniProt O75116)
Sequence (O75116 whole entry, looked up): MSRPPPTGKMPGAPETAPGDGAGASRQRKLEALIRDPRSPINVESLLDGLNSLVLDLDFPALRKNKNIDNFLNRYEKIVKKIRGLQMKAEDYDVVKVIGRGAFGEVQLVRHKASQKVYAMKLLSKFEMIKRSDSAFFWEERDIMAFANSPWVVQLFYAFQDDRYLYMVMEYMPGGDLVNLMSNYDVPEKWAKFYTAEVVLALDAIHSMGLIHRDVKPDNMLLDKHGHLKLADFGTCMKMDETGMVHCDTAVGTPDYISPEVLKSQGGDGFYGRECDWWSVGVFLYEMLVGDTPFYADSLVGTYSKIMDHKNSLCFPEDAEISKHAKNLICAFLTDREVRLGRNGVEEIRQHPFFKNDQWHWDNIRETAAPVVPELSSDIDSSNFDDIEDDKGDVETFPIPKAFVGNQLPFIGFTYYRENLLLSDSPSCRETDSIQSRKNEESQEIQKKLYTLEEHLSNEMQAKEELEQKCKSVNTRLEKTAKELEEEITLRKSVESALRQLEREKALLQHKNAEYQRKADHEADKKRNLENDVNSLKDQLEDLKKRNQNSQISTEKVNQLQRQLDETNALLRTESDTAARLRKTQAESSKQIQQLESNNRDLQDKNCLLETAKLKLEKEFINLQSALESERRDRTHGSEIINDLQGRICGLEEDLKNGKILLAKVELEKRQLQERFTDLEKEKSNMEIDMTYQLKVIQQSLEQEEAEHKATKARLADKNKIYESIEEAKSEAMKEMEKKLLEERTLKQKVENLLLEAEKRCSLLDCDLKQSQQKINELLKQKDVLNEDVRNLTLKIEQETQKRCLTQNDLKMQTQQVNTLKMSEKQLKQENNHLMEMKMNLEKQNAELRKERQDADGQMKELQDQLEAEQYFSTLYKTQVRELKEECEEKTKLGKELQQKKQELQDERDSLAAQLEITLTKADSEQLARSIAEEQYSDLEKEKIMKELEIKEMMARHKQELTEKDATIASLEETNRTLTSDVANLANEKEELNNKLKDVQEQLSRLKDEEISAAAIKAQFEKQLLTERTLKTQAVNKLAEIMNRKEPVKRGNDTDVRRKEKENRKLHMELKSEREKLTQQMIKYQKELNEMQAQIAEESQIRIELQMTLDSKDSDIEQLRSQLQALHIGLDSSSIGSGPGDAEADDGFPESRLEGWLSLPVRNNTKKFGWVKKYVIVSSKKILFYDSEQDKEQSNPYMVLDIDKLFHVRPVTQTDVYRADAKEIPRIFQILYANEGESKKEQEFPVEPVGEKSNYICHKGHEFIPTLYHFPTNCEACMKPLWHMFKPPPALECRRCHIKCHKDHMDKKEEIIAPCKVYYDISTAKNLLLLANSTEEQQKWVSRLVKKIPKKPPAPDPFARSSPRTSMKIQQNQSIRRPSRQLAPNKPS
Assay: Inhibition of ROCK2 Kinase Activity
Details: not given

| SMILES | pIC50 | pKi |
| --- | --- | --- |
| COc1cccc(CNC(=O)Nc2nc(-c3ccncc3)cs2)c1 | 8.00 |  |
| Cc1c[nH]c2nccc(Nc3ccc(Nc4cc(Cl)nc(N)n4)cc3F)c12 | 8.52 |  |
| Nc1nc(Nc2cc(F)c(Sc3ccncc3)c(Cl)c2)cc(N2C[C@H]3CCCN[C@H]3C2)n1 | 8.22 |  |
| c1c[nH]c(CN2CCC[C@@H](Nc3ccc4[nH]ncc4c3)C2)n1 |  | 8.89 |
| Cc1c[nH]c2nccc(Nc3ccc(Nc4cc(C(F)(F)F)nc(N)n4)cc3F)c12 | 8.40 |  |
| COCCN(C(=O)c1cccc(CNC(=O)c2ccc(OC)c(OC)c2)c1)c1ccc2c(c1)CNCC2 | 7.00 |  |
| Nc1nc(Nc2ccc(Oc3ccc4cn[nH]c4c3)c(F)c2)cc(-c2ccncc2)n1 | 7.00 |  |
| Nc1nc(Nc2ccc(Sc3ccncc3)c(F)c2)cc(N2C[C@H]3CCCN[C@H]3C2)n1 | 7.96 |  |
| C[C@H]1CN(C(=O)CN)CCCN1S(=O)(=O)c1cccc2cncc(F)c12 | 7.49 |  |
| CNCC(=O)N1CCCN(S(=O)(=O)c2cccc3cncc(F)c23)[C@@H](C)C1 | 7.54 |  |
| O=C(C(O)c1ccc(Br)cc1)N1CCN(c2ccc3[nH]ncc3c2)CC1 (configuration not stated) | 7.05 |  |
| COc1cccc(CN(CCN(C)C)C(=O)c2nc3ccc(-c4cn[nH]c4)cc3s2)c1 | > 9.00 |  |
| OC[C@@H](O)COc1cccc(CN2CCC[C@H](Nc3ccc4[nH]ncc4c3)C2)c1 | 6.49 |  |
| C[C@@H](N)c1ccc(C(=O)Nc2ccncc2)cc1 | 6.41 |  |
| C[C@@H](NC(=O)Nc1nc(-c2ccncc2)cs1)c1ccccc1 | 7.92 |  |
| NCC1(c2ccc(Cl)cc2)CCN(c2ncnc3[nH]ccc23)CC1 | > 7.00 |  |
| Nc1nccc2cc(CNCCc3ccccc3)ccc12 | 5.50 |  |
| Nc1nc(Nc2ccc(Sc3ccncc3)c(F)c2)cc(Oc2cccc(Cl)c2)n1 | 7.15 |  |
| CSCc1ccc(CN2CCCC(Nc3ccc4[nH]ncc4c3)C2)cc1 (configuration not stated) | 5.88 |  |
| c1cc2ccc(CN3CCC[C@@H](Nc4ccc5[nH]ncc5c4)C3)cc2[nH]1 |  | 8.20 |
| Nc1nc(Nc2cc(F)c(Sc3ccncc3)c(F)c2)cc(N2C[C@H]3CCCN[C@H]3C2)n1 | 8.30 |  |
| C[C@@H](N)[C@]1(C)CC[C@@H](C(=O)Nc2ccncc2)CC1 |  | 6.52 |
| Nc1nc(Nc2ccc(Cc3ccnc4[nH]ccc34)c(F)c2)cc(C(F)(F)F)n1 | 8.15 |  |
| NCC1(c2ccc(OC(F)(F)F)cc2)CCN(c2ncnc3[nH]ccc23)CC1 | > 7.52 |  |
| CN1CCCN(c2nc(-c3ccc4cn[nH]c4c3)cnc2N)CC1 | < 7.00 |  |
